Data on 27 compounds can be found in ChEMBL document CHEMBL1201862, “PubChem BioAssay data set” (2004).

Holding throughout (experiment): NCI anticancer screen, dose series, 48 h
In assay [1] the test system is DMS-273.
Assay [2] has as its system KM-20L2.
Assay [3] concerns SNB-78.
For assay [4], the system named is M19-MEL.
Assay [5] concerns XF498.
Assay [6] concerns HOP-18.
Assay [7] has as its system DMS-114.
Assay [8] relates to DLD-1.
Assay [9] has as its system RXF 631.

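A five-concentration, 48-hour dose response in 96-well plates underlies each endpoint, interpolated linearly between surrounding concentrations. Here, GI50 denotes the concentration required for 50% inhibition of growth.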 Active and inactive are the calls of the source. Rule as the data show it: active = GI50 up to about 1.1 µM and inactive = higher.

As to `COc1cc2cc(c1Cl)N(C)C(=O)C[C@H](OC(=O)[C@H](C)N(C)C(C)=O)[C@]1(C)O[C@H]1[C@H](C)[C@@H]1C[C@@](O)(NC(=O)O1)[C@H](OC)/C=C/C=C(/C)C2`, the GI50 was 0.01 µM (active) in assay [1]; 0.0308 µM (active) in [2]; 0.025 µM (active) in assay [3]; 0.0628 µM (active) in assay [4]; 0.0628 µM (active) in assay [5]; 0.695 µM (active) in assay [6]. The GI50 was 0.0323 µM (active) in assay [7] and 0.025 µM (active) in assay [8].
For the compound `N#CCc1nnc(N)o1`, the GI50 in assay [9], in [1], in [2], in assay [3], in assay [4] and in assay [5] was > 100 µM (inactive) each time. Besides, the GI50 in assay [8] is > 100 µM (inactive).
Take `C/C(CN1C(=O)c2ccccc2C1=O)=N\NS(=O)(=O)c1ccc(F)cc1`: the GI50 in assay [1], in assay [2], in [3], in assay [5], in assay [6] and in assay [7] was > 100 µM (inactive) throughout. Moreover, in [8], the GI50 was > 100 µM (inactive).
For the compound `O=C(NCCS(=O)(=O)N1C(=O)C2CCCN2C(=O)[C@@H]1Cc1ccccc1)OCc1ccccc1` (some centres not stated), the GI50 in assay [9] is 45.6 µM (inactive); in [2] it was 45.8 µM (inactive); in assay [3], 61.9 µM (inactive); in assay [5] it was 0.838 µM (active); in assay [6], > 100 µM (inactive); in assay [7], 22.4 µM (inactive). Also, the GI50 in [8] was > 100 µM (inactive).
With `CC(C)(C)OC1=C(OC(C)(C)C)C(O)(c2ccc(Cl)cc2)C1=O` (configuration not stated), the GI50 in assay [9] was 86.5 µM (inactive); in assay [1], > 100 µM (inactive); in assay [3], > 100 µM (inactive); in [4], > 100 µM (inactive); in assay [6] it was > 100 µM (inactive); in assay [7], > 100 µM (inactive). For the same compound, the GI50 in [8] was > 100 µM (inactive).
Consider `O=C1CC2C(=O)N(Cc3ccccc3)C1C=C2S(=O)(=O)c1ccccc1` (configuration not stated), for which the GI50 in [2], in assay [3], in assay [4], in assay [5], in assay [6] and in assay [7] was > 100 µM (inactive) each time. For the same compound, in [8], the GI50 is > 100 µM (inactive).
With `CNS(=O)(=O)NNS(=O)(=O)c1ccc(Cl)cc1`, the GI50 in assay [9], in [2], in [4], in assay [7] and in [8] was > 100 µM (inactive) in each case.
In the case of `CC(C)N(C(=O)C12C3C4C1C1C2C3C41C#N)C(C)C` (configuration not stated), the GI50 in assay [9] was > 100 µM (inactive); in assay [1], > 71.8 µM (inactive); in [2] it was > 100 µM (inactive); in assay [3], > 100 µM (inactive); in assay [4], > 100 µM (inactive); in assay [5] it was > 100 µM (inactive). In addition, the GI50 was > 100 µM (inactive) in assay [6], > 100 µM (inactive) in assay [7] and > 72.8 µM (inactive) in assay [8].
On to `CCCCC/C=C1\CCC(CN(C)C)C1=O` (configuration not stated), for which the GI50 in assay [9] is 14.7 µM (inactive); in assay [1], 13.6 µM (inactive); in [2], 15.1 µM (inactive); in assay [3], 19.7 µM (inactive); in assay [4] it was 10.4 µM (inactive); in assay [5], 14.9 µM (inactive). The GI50 is 24 µM (inactive) in assay [6], 13.5 µM (inactive) in assay [7] and 3.73 µM (inactive) in assay [8].
For the compound `O=C(COc1ccc(Cl)cc1)N1N=C(c2ccc([N+](=O)[O-])o2)CC1(O)c1ccccc1` (configuration not stated), the GI50 in assay [9] was 7.87 µM (inactive); in assay [1], 5.28 µM (inactive); in assay [2], 12.3 µM (inactive); in assay [3] it was 13.8 µM (inactive); in assay [4], 2.44 µM (inactive); in [5], 10.5 µM (inactive). The GI50 in assay [8] is 4.66 µM (inactive).
For the compound `CC1(C)CCc2cc3c(cc2O1)OCC1c2cc4c(cc2OC31)OCO4` (configuration not stated), the GI50 is 55.3 µM (inactive) in assay [9]; > 100 µM (inactive) in assay [2]; 82.4 µM (inactive) in assay [4]; 52.1 µM (inactive) in [5]; > 100 µM (inactive) in assay [6]; > 100 µM (inactive) in assay [7]. In addition, the GI50 in assay [8] is > 100 µM (inactive).
Consider `NNC(=S)N/N=C(/C(=O)Nc1cc(Cl)ccc1Cl)C1C(=O)Nc2ccccc2[S+]1[O-]` (configuration not stated), for which the GI50 in assay [2], in [3], in assay [4], in assay [5], in [6] and in [7] was > 100 µM (inactive) in each case. The GI50 in assay [8] was > 100 µM (inactive).
For `CCC1(OC(=O)CNC)C(=O)OCc2c1cc1n(c2=O)Cc2cc3ccccc3nc2-1` (configuration not stated), the GI50 was < 0.01 µM (active) in assay [9]; < 0.01 µM (active) in assay [1]; 0.0336 µM (active) in assay [2]; 0.263 µM (active) in [3]; 0.0177 µM (active) in [6]; 0.294 µM (active) in assay [8].
Regarding `CC#Cc1c(C#CC)c(OC)c2c(c1OC)C(=O)c1ccccc1C2=O`, the GI50 was 22.8 µM (inactive) in assay [1]; > 100 µM (inactive) in [2]; > 100 µM (inactive) in assay [4]; > 100 µM (inactive) in assay [5]; 20.7 µM (inactive) in assay [7]; 76 µM (inactive) in [8].
With `C[C@H]1CCC2C(CN3CCCCC3)C(=O)OC2[C@]2(C)C(=O)CC(N3CCCCC3)C12O` (some centres not stated), the GI50 is 1.28 µM (inactive) in [9]; 3.57 µM (inactive) in [1]; 7.91 µM (inactive) in assay [2]; 4.41 µM (inactive) in assay [3]; 5.3 µM (inactive) in [4]; 29 µM (inactive) in [6]. Also, the GI50 in assay [7] was 3.2 µM (inactive); in [8], 3.34 µM (inactive).
As to `C=CC(=O)NC(=N)NC#N`, the GI50 is 150 µM (inactive) in assay [2]; 179 µM (inactive) in assay [3]; 140 µM (inactive) in assay [4]; 97.3 µM (inactive) in assay [5]; 148 µM (inactive) in [6]; 114 µM (inactive) in assay [7]. Besides, in assay [8], the GI50 is 153 µM (inactive).
For the compound `CCc1cccc(CC)c1NC(=O)CC1SC(N)=NC1=O` (configuration not stated), the GI50 in assay [9], in assay [1], in assay [3], in assay [4], in assay [5] and in [6] was > 100 µM (inactive) throughout. Also, the GI50 in [7] is > 100 µM (inactive).
For the compound `CN(C)c1c([O-])c(=[N+](C)C)c1=O`, the GI50 in assay [1], in [3] and in [5] was > 100 µM (inactive) each time.
Regarding `Cc1cc2c(Br)cc(Br)c(O)c2nc1C(=O)c1ccccc1`, the GI50 was 19 µM (inactive) in [1]; 28.4 µM (inactive) in [2]; 50.1 µM (inactive) in assay [3]; 17.7 µM (inactive) in assay [4]; 18.5 µM (inactive) in [6]; 31.6 µM (inactive) in assay [7]. In addition, in assay [8], the GI50 was 36.6 µM (inactive).
Take `CN(C)CCn1c2ccccc2c2nc3cc4ccccc4cc3nc21`: the GI50 in assay [1] is 3.13 µM (inactive); in [2] it was 3.3 µM (inactive); in assay [4], 8.73 µM (inactive); in [5], 7.66 µM (inactive); in assay [7], 6.47 µM (inactive); in assay [8] it was 3.81 µM (inactive).
As for `COc1ccc(C2=C3c4cc(OC)c(OC)cc4CCN3C(=S)SS2)cc1OC`, the GI50 is 43.5 µM (inactive) in assay [1]; 75.9 µM (inactive) in [2]; 80.4 µM (inactive) in [3]; 53.2 µM (inactive) in [4]; > 100 µM (inactive) in assay [6]; 65.2 µM (inactive) in assay [7]. In addition, the GI50 in assay [8] was 33.7 µM (inactive).
Regarding `CCCCCCCCCCCC(=O)OCCOCCOCCOCCOCCOC(=O)CCCCCCCCCCC`, the GI50 in [9], in assay [1], in [2], in assay [3], in [4] and in assay [6] was > 100 µM (inactive) each time. Further, the GI50 in assay [7] and in assay [8] was > 100 µM (inactive) throughout.
For `Cc1c(CCl)c(=O)oc2c(C)c3occ(CCl)c(=O)c3cc12`, the GI50 in assay [9] was 16 µM (inactive); in assay [2], > 100 µM (inactive); in assay [4], 16.2 µM (inactive); in assay [6], 17.4 µM (inactive); in [7] it was 20.2 µM (inactive).
For the compound `C=C1C[C@]23CCC4C(C)(C)C(=O)CC[C@]4(C)C2C[C@H]1C(O)C3=O` (some centres not stated), the GI50 in assay [9], in assay [2], in [3], in assay [4], in assay [5] and in [6] was > 75 µM (inactive) throughout. Besides, the GI50 in [8] was > 75 µM (inactive).
With `CCOC(=O)Cc1csc(Nc2ccc(OCC)cc2)n1`, the GI50 is > 100 µM (inactive) in [9]; > 100 µM (inactive) in [2]; > 100 µM (inactive) in assay [3]; > 100 µM (inactive) in assay [4]; 38.7 µM (inactive) in assay [5]; > 100 µM (inactive) in [6]. In addition, the GI50 in assay [7] is 69.2 µM (inactive); in assay [8] it was > 100 µM (inactive).
For the compound `Cc1cc2c3ccccc3n(C)c2c2c1C(=O)c1ccccc1C2=O`, the GI50 was 21.9 µM (inactive) in assay [9]; 19.4 µM (inactive) in assay [1]; 3.01 µM (inactive) in assay [4]; 15.9 µM (inactive) in [5]; 17.1 µM (inactive) in assay [7]; 14.6 µM (inactive) in [8].
Consider `O=C(Nc1cc(C(F)(F)F)ccc1Cl)C(=O)C(C(=O)c1ccc2ccccc2c1)C1OC(=O)c2ccccc21` (configuration not stated), for which the GI50 in [2] was 20.4 µM (inactive); in assay [4] it was 11.8 µM (inactive); in assay [7], 11.4 µM (inactive); in [8], 9.82 µM (inactive).
